Laboratory results reported in patent US20060117411A1, “Enhancing plant pathogen resistance via increasing BiP levels” (priority 1998, published 2006).

System: BiP gene expression
Experiment: Leaf treatment of tobacco plants, Northern blot of BiP transcripts in treated (local) and untreated (systemic) leaves
Type: in vivo, Nicotiana tabacum
Details: after 3 and 8 hours; tunicamycin 0.02 mM
Excerpt: We have shown that treatment of tobacco plants with cell wall-degrading enzymes (CDE) leads to the rapid induction of β-1,3-glucanase and other PR genes, both locally and systemically (Vidal et al, 1997). […] We used a commercial preparation of fungal CDEs instead of custom made Erwinia-derived hydrolases to increase reproducibility. […] This induction was observed locally as well systemically with the same timing and intensity. β-1,3-glucanase transcript accumulation is detectable only after 4 hours of incubation and reaches its plateau after 8 hours as described previously (Vidal et al, 1997). Whereas BiP induction is transient, β-1,3-glucanase mRNA levels continue to be high after prolonged incubation times (24-48 hours). […] The signal involved in the systemic response of BiP gene expression must therefore be transported very rapidly from the local leaf to the distal leaves.
Even though BiP induction occurs prior to β-1,3 glucanase induction, we cannot rule out that other, as yet unidentified defence related proteins are induced more rapidly and perhaps before BiP in our experimental system. If this were the case, it would still be possible that the rapid induction of BiP is the result of a feedback mechanism due to ER stress resulting from the increased synthesis of proteins on the rough ER, the unfolded protein response (UPR). […]

Substance: tunicamycin
- BiP mRNA levels in the treated leaf: strong increase
